One block for each compound: values may come before it. Calls of active or inactive are those of the source.
Experiments:
SUMO-activating enzyme = SUMO-activating enzyme (Homo sapiens, UniProt Q9UBT2); assay: blockers of UBC9-mediated SUMO conjugation – biochemical, AlphaScreen, SUMOylation inhibitor project, confirmation (AID 2018); assay type: functional
[1] = target: G-protein coupled receptor 55 (Homo sapiens, UniProt Q9Y2T6); assay: selective activators of receptor GPR55 – imaging, U2OS cells, beta-arrestin-GFP redistribution, primary screen (AID 1961); assay type: functional
[2] = target: Female germline-specific tumor suppressor gld-1 (Caenorhabditis elegans, UniProt Q17339); assay: blockers of GLD-1/TGE RNA complex formation – biochemical, fluorescence polarization, C. elegans, dose response (AID 2802);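 further: fluorescence polarization of labeled TGE RNA bound by purified gld-1 protein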
Protein Rev = Protein Rev (Human immunodeficiency virus type 1 group M subtype B (isolate HXB2)(HIV-1), UniProt P04618); assay: blockers of HIV Rev/RRE RNA complex – biochemical, fluorescence polarization, HIV-1, dose response (AID 434976); parameters: species or system Human immunodeficiency virus 1
[3] = target: T1, Orexin/Hypocretin receptor type 1 (Homo sapiens, UniProt O43613); assay: Homogeneous Time Resolved Fluorescence (HTRF)-based cell-based high throughput dose response assay for antagonists of the orexin 1 receptor (OX1R; HCRTR1). [Related pubchem assays (depositor defined):AID434989, AID435008, AID463079, AID485270, AID492963, AID492964, AID492965, AID493232, AID504717, AID504718]; assay type: functional
T1 sequence (O43613 whole entry): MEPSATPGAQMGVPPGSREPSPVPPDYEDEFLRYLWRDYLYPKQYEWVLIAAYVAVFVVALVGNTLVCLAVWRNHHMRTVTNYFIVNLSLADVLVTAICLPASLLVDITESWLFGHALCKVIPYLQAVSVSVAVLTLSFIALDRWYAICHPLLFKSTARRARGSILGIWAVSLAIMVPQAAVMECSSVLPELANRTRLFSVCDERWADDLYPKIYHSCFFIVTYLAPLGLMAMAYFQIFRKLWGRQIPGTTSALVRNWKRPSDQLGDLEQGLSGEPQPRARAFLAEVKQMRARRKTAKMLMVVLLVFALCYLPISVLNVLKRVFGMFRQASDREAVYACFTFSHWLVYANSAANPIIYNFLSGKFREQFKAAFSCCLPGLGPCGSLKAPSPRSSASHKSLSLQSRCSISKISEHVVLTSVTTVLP

[4] = target: T1, Orexin/Hypocretin receptor type 1; assay: Fluorescence-based cell-based high throughput dose response assay for antagonists of the orexin 1 receptor (OX1R; HCRTR1). [Related pubchem assays (depositor defined):AID434989, AID435008, AID463079, AID485270, AID492963, AID492964, AID492965, AID493232, AID504717, AID504718]; assay type: functional
CHO-K1 = assay: (§1) Counterscreen for antagonists of the orexin 1 receptor (OX1R; HCRTR1): Homogeneous time resolved fluorescence (HTRF)-based cell-based dose response assay to identify antagonists of the parental CHO-K1 cell line. [Related pubchem assays (depositor defined):AID434989, AID435008, AID463079, AID485270, AID492963, AID492964, AID492965, AID493232, AID504699, AID504701]; assay type: functional; conditions: Cricetulus griseus
[5] = as §1, with “Fluorescence-based” for “Homogeneous time resolved fluorescence (HTRF)-based”, “cell-based high throughput” for “cell-based”, “CHO” for “CHO-K1”; assay type: functional
[6] = target: T2, Polyadenylate-binding protein 1 (Homo sapiens, UniProt P11940); assay: MLLE domain peptide-binding blockers, IC50 – biochemical, fluorescence polarization, FITC-PAM2 peptide, dose response (AID 602259); assay type: functional; conditions: read-out: IC50_Mean
[7] = target: T2, Polyadenylate-binding protein 1; assay: MLLE binding blockers, Cy5 peptide tracer – biochemical, fluorescence polarization, Cy5-PAM2 peptide, secondary, miRNA deadenylation inhibitor project, dose response (AID 602260); assay type: functional; conditions: read-out: IC50_Mean
Hexokinase = Hexokinase (Trypanosoma brucei, UniProt Q38C41); assay: Confirmation assay for inhibitors of Trypanosoma brucei hexokinase 1-Analogue-first series. [Related pubchem assays (depositor defined):AID1430, AID1632, AID2516, AID2560, AID2579, AID2600, AID449725, AID492951]; assay type: functional
[8] = target: T3, Tyrosine-protein phosphatase non-receptor type 7 (Homo sapiens, UniProt P35236); assay: inhibition of hematopoietic tyrosine phosphatase HePTP – biochemical, set 2, SAR follow-up (AID 449736); assay type: functional
T3 sequence (P35236 whole entry): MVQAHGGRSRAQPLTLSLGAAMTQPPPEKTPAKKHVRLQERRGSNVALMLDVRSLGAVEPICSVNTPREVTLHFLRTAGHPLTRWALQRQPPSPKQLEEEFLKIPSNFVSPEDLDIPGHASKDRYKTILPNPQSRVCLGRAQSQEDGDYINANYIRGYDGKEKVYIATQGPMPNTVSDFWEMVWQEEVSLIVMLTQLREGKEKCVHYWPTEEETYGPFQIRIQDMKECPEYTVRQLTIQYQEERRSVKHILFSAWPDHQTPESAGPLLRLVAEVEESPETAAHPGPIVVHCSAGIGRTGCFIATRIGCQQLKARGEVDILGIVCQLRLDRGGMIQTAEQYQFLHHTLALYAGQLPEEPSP

Large T antigen = Large T antigen (Simian virus 40, UniProt P03070); assay type: functional, Betapolyomavirus macacae;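 further: Confirmatory-stage PubChem screen for compounds that inhibit SV40 T antigen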
[9] = target: FAD-linked sulfhydryl oxidase ALR (Homo sapiens, UniProt P55789); assay: ALR-catalysed DTT oxidation blockers – biochemical, H2O2 detection, luminescence, cherry-pick, dose response (AID 493248)
[10] = target: T4, Carboxy-terminal domain RNA polymerase II polypeptide A small phosphatase 1 (Homo sapiens, UniProt Q9GZU7); assay: CTDSP1 inhibitors, concentration-response, biochemical, absorbance readout, ultra-high-throughput screen actives (AID 540297); assay type: functional
T4 sequence (Q9GZU7 whole entry): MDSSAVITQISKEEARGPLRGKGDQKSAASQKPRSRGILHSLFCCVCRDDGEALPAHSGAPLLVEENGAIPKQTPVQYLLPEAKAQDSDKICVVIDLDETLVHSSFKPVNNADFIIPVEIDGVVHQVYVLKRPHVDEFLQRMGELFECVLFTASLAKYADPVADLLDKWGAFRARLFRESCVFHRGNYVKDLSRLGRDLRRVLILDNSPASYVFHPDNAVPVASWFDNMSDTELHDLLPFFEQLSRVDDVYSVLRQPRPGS

[11] = target: T5, Voltage-gated N-type calcium channel alpha-1B subunit/Amyloid beta A4 precursor protein-binding family A member 1 (Homo sapiens, UniProt Q00975+Q02410); assay type: protein assay
[12] = target: Induced myeloid leukemia cell differentiation protein Mcl-1 (Homo sapiens, UniProt Q07820); assay type: functional
[13] = target: T5, Voltage-gated N-type calcium channel alpha-1B subunit/Amyloid beta A4 precursor protein-binding family A member 1; assay type: protein assay; remark: listed apart in the source

Chain of Protein Rev (P04618 whole entry): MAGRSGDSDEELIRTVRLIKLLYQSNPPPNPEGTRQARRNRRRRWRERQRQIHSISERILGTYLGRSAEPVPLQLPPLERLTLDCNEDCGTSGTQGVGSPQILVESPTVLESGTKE
Chain of Hexokinase (Q38C41 whole entry): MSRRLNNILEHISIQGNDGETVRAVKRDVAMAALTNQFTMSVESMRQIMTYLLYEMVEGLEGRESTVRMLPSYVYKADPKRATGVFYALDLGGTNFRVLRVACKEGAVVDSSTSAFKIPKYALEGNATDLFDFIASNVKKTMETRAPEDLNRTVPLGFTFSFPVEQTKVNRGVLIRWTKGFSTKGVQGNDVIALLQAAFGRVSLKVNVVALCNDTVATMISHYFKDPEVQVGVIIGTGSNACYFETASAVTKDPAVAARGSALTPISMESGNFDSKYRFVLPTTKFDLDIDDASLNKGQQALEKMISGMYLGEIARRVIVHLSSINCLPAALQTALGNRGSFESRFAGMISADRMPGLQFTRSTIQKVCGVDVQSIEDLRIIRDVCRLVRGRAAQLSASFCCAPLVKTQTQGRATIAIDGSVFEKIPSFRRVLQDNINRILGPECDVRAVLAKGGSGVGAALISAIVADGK
T5 sequence (Q00975 whole entry): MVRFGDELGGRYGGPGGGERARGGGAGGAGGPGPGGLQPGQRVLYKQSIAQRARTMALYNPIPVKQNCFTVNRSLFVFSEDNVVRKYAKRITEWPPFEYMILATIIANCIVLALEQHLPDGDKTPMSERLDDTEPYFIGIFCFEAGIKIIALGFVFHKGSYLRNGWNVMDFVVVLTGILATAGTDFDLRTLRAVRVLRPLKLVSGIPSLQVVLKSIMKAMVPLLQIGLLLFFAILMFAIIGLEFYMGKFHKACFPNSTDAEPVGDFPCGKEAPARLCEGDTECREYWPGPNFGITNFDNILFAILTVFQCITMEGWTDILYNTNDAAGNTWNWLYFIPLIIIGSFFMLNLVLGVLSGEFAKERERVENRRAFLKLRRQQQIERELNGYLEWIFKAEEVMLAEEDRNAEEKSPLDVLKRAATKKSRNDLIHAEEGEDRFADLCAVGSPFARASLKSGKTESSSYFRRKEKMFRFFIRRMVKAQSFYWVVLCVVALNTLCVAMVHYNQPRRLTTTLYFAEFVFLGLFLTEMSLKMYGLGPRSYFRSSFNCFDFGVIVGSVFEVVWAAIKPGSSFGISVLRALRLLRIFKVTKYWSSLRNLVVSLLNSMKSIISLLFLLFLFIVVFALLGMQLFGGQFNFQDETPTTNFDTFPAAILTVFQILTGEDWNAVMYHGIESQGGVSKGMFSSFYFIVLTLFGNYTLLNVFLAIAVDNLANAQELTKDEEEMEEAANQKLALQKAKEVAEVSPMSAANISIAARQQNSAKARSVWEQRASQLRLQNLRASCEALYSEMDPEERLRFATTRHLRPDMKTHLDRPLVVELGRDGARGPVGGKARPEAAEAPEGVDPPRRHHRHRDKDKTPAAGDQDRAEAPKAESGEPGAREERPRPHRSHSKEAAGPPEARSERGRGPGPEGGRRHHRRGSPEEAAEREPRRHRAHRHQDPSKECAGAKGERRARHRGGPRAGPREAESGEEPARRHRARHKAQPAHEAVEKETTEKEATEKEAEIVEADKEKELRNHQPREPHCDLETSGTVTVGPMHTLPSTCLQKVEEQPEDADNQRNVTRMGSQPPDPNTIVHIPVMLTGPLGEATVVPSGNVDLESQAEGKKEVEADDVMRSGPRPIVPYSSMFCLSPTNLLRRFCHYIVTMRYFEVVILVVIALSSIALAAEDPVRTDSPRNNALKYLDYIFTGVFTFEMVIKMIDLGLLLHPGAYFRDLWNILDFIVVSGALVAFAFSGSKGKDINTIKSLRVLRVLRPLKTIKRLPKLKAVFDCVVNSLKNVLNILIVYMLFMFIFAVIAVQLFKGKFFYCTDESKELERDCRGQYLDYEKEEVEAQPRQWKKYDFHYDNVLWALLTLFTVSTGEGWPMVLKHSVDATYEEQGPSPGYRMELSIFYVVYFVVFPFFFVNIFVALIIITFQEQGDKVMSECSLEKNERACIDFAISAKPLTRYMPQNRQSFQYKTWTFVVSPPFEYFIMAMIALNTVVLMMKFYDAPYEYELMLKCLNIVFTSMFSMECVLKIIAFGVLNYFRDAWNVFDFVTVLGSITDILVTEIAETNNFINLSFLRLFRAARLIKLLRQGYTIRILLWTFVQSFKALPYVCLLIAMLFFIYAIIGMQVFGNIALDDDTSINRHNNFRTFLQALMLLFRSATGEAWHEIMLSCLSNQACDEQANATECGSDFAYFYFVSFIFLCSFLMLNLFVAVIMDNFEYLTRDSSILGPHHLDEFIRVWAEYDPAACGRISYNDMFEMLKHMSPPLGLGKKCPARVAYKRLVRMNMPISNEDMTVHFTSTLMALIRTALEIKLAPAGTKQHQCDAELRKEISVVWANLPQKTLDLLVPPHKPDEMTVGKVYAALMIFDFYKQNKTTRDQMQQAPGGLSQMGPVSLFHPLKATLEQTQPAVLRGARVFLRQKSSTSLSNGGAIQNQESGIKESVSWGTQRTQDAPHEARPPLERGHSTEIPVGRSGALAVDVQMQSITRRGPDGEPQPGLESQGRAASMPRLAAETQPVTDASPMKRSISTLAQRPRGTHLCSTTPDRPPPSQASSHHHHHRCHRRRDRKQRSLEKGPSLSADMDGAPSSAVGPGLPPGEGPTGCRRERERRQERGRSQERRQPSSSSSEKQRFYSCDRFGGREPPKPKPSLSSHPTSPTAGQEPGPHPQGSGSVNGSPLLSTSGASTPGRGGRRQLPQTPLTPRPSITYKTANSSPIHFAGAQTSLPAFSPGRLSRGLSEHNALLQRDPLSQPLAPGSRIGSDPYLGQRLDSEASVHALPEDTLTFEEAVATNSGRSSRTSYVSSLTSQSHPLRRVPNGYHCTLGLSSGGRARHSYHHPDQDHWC
T5 sequence (Q02410 whole entry): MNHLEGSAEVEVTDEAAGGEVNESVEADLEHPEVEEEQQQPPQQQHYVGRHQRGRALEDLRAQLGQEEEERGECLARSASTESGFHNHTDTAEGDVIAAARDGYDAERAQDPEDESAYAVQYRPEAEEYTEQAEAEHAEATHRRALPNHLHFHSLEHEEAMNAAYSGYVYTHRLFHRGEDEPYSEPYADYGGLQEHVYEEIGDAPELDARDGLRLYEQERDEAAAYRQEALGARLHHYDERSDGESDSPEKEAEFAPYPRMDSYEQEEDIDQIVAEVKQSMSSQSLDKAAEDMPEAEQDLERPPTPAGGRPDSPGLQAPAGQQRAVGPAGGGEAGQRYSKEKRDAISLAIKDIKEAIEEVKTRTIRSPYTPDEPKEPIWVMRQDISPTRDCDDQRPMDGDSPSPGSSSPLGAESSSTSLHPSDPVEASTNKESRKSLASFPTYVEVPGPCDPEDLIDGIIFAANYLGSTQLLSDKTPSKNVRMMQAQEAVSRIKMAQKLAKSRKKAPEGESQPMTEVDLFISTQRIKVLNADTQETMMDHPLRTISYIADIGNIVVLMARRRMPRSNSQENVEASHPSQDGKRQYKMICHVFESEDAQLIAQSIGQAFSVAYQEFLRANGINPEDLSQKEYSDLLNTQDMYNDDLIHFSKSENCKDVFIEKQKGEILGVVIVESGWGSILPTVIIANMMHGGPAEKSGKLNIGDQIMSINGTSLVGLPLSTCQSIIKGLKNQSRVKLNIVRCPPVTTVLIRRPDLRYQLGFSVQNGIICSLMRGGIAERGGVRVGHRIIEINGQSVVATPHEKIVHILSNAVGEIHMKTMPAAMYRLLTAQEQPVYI
Chain of Female germline-specific tumor suppressor gld-1 (Q17339 whole entry): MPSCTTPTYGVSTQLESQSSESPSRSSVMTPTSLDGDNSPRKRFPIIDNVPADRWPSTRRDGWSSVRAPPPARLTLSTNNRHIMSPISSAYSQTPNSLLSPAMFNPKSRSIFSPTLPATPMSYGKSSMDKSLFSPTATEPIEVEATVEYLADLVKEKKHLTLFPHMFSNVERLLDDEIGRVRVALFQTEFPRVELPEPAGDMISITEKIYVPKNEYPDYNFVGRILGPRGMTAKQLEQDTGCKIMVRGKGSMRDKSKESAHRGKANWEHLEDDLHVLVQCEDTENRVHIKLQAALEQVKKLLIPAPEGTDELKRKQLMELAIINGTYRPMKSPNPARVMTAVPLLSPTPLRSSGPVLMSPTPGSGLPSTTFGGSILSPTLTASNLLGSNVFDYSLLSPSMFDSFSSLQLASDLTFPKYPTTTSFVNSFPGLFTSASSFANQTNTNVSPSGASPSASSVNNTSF
T2 sequence (P11940 whole entry, the tested form may be a part): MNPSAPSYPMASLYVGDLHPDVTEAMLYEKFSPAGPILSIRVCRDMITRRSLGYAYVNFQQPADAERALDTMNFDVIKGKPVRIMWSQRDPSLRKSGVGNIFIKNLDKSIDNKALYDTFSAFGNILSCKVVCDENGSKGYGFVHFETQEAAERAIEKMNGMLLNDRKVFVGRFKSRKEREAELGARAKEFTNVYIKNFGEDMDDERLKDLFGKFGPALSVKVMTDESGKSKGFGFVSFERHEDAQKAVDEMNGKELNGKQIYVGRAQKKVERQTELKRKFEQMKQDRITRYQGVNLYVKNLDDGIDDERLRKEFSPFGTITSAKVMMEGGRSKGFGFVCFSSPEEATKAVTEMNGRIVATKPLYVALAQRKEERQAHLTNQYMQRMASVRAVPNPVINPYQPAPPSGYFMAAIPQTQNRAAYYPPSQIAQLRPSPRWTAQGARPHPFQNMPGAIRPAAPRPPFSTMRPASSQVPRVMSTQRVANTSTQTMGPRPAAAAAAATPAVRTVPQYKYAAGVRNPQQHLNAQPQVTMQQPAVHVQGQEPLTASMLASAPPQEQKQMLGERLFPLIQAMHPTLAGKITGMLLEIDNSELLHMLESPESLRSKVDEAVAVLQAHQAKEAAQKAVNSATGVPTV
Chain of FAD-linked sulfhydryl oxidase ALR (P55789 whole entry, the tested form may be a part): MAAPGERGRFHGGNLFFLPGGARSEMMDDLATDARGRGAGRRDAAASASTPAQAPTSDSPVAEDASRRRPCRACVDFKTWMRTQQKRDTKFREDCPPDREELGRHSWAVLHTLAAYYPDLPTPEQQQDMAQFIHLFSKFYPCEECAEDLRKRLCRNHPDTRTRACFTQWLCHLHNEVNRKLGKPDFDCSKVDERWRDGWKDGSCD

Compound: COc1ccc(NC(=O)Cc2ccccc2)cn1
IC50 [2]: 15.1 µM (inactive)
IC50 (Protein Rev): > 25.2 µM (not active)

Compound: Cn1c2ccc(F)cc2c2nc3ccccc3nc21
IC50 [3]: 1.17 µM (active)
IC50 [4]: 6.95 µM (active)
IC50 (CHO-K1): > 66.2 µM (inactive)
IC50 [5]: > 49.7 µM (inactive)

Compound: CCOC(=O)c1cc2c(ccn2C)n1CC(=O)N(Cc1ccccc1)c1ccccc1
IC50 [2]: > 6.62 µM (active)
IC50 [6]: > 66 µM (inactive)
IC50 [7]: > 66 µM (inactive)
IC50 (Protein Rev): > 75.4 µM (not active)

Compound: O=C(Cn1sc2ccccc2c1=O)Nc1cccc(F)c1
IC50 (Hexokinase): 4.78 µM (active)

Compound: COc1ccc(NC(=O)Cn2sc3ccccc3c2=O)cc1
IC50 (Hexokinase): 5.63 µM (active)

The next lines start with the values.

IC50 (SUMO-activating enzyme): > 100 µM (inactive)
Compound: Cc1ccc2oc(-c3ccc(C)c(NC(=O)Cc4cccs4)c3)nc2c1

EC50 [1]: > 32 µM (inactive)
Compound: CCN(c1ccccc1)S(=O)(=O)c1ccc(C(=O)N(CCN(C)C)c2nc3c(F)cc(F)cc3s2)cc1

IC50 [8]: > 100 µM (inactive)
Compound: CCNS(=O)(=O)c1ccc(NC(=S)NC2CCCCC2)cc1

IC50 (Large T antigen): 5.62 µM (active)
AC50 [9]: 1.65 µM (active)
Compound: COc1cc(/C=N/NC(=O)c2cccs2)ccc1O

IC50 [10]: 4.74 µM (active)
IC50 [11]: > 50 µM (inactive)
IC50 [12]: 3.94 µM (active)
IC50 [13]: 13.1 µM (active)
Compound: Cc1c(O)cc2c(c1O)C(=O)CC(c1ccc(O)cc1)O2 (stereo unspecified)

Source: ChEMBL document CHEMBL1201862, “PubChem BioAssay data set” (2004)
